Patent US7829589B2, “Sulfonamide compounds and uses thereof” (Elixir Pharmaceuticals, Inc., priority 2005, dated 2010)

molecular target: GHS-R (Homo sapiens, UniProt Q92847); test: GHS-R antagonist activity (Ki) in a cell based assay
Method: Cell-Based Activity Assays. For example, the ability of the compound to modulate accumulation of a second messenger signaling component downstream of GHS-R can be evaluated. For example, inositol phosphates (IP), as a result of Gq signaling in a mammalian cell, e.g., a Cos-7 cells. Other tissue culture cells, Xenopus oocytes, and primary cells can also be used.
Phosphatidylinositol turnover assay. One day after transfection COS-7 cells are incubated for 24 hours with 5 μCi of [^3H]-myo-inositol in 1 ml medium supplemented with 10% fetal calf serum, 2 mM glutamine and 0.01 mg/ml gentamicin per well. Cells are then washed twice in buffer, 20 mM HEPES, pH 7.4, supplemented with 140 mM NaCl, 5 mM KCl, 1 mM MgSO4, 1 mM CaCl2, 10 mM glucose, 0.05% (w/v) bovine serum; and incubated in 0.5 ml buffer supplemented with 10 mM LiCl at 37° C. for 30 min. For some assays, it is also useful to incubate the cells with adenosine deaminase ADA (200 U/mg, Boehringer Mannheim, Germany) for 30 min in a concentration of 1 U/ml.
After incubation with the compound of interest for 45 min at 37° C., cells are extracted with 10% ice-cold perchloric acid and placed on ice for 30 min. The resulting supernatants are neutralized with KOH in HEPES buffer, and [^3H]-inositol phosphate is purified on Bio-Rad AG 1-X8 anion exchange resin as described. Assays can be run in duplicate, triplicate, etc. […]

Chain of GHS-R (Q92847 whole entry, species assumed): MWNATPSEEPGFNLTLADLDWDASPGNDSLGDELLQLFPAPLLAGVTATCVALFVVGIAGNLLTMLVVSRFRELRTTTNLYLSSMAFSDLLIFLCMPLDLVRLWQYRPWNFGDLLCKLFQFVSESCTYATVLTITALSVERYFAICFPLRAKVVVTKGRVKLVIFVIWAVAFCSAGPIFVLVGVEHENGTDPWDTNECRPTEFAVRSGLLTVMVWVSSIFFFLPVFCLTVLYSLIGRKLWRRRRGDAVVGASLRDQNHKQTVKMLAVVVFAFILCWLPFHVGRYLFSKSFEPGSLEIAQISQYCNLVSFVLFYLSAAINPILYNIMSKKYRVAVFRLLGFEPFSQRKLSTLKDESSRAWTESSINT

`CCN(CC)CCCS(=O)(=O)N[C@H](CCc1ccccc1)c1nc(Cc2ccc(Cl)cc2)n[nH]1` [Compound 24, 3-Diethylamino-propane-1-sulfonic acid {(R)-1-[5-(4-chloro-benzyl)-2H-[1,2,4]triazol-3-yl]-3-phenyl-propyl}-amide] and `CCN(CC)CCCS(=O)(=O)N[C@H](CCc1ccccc1)c1nc(Cc2ccc3c(c2)OCO3)n[nH]1` [Compound 30, 3-Diethylamino-propane-1-sulfonic acid [(R)-1-(5-benzo[1,3]dioxol-5-ylmethyl-2H-[1,2,4]triazol-3-yl)-3-phenyl-propyl]-amide] cannot be ordered by Ki: less than 100 nM for the first, less than 100 nM for the second.

First: CCN(CC)CCCS(=O)(=O)N[C@H](COCc1ccccc1)c1nc(-c2ccccc2)n[nH]1 [Compound 25, 3-Diethylamino-propane-1-sulfonic acid [(S)-2-benzyloxy-1-(5-phenyl-2H-[1,2,4]triazol-3-yl)-ethyl]-amide]
Second: CCN(CC)CCS(=O)(=O)N[C@H](CCc1ccccc1)c1nc(-c2ccccc2)n[nH]1 [Compound 28, 2-Diethylamino-ethanesulfonic acid [(R)-3-phenyl-1-(5-phenyl-2H-[1,2,4]triazol-3-yl)-propyl]-amide]
The Ki of the first is higher: 100 to 500 nM for the first, less than 100 nM for the second.

First: CCN(CC)CCS(=O)(=O)N[C@H](CCc1ccccc1)c1nc(-c2ccccn2)no1 [Compound 27, 2-Diethylamino-ethanesulfonic acid [(R)-3-phenyl-1-(3-pyridin-2-yl-[1,2,4]oxadiazol-5-yl)-propyl]-amide]
Second: CCN(CC)CCCS(=O)(=O)N[C@H](CCc1ccccc1)c1nc(-c2ccccn2)no1 [Compound 39, 3-Diethylamino-propane-1-sulfonic acid [(R)-3-phenyl-1-(3-pyridin-2-yl-[1,2,4]oxadiazol-5-yl)-propyl]-amide]
The Ki of the first is lower: 100 to 500 nM for the first, 500 to 1000 nM for the second.

`CCN(CC)CCCS(=O)(=O)N[C@H](CCc1ccccc1)c1nc(-c2ccccc2F)n[nH]1` [Compound 29, 3-Diethylamino-propane-1-sulfonic acid {(R)-1-[5-(2-fluoro-phenyl)-2H-[1,2,4]triazol-3-yl]-3-phenyl-propyl}-amide] and `CCN(CC)CCCS(=O)(=O)N[C@H](CCc1ccccc1)c1nc(-c2c[nH]c3ccccc23)n[nH]1` [Compound 38, 3-Diethylamino-propane-1-sulfonic acid {(R)-1-[5-(1H-indol-3-yl)-2H-[1,2,4]triazol-3-yl]-3-phenyl-propyl}-amide] cannot be ordered by Ki: less than 100 nM for the first, less than 100 nM for the second.

First: CCN(CC)CCCS(=O)(=O)N[C@H](CCc1ccccc1)c1nc(-c2cccnc2Cl)no1 [Compound 31, 3-Diethylamino-propane-1-sulfonic acid {(R)-1-[3-(2-chloro-pyridin-3-yl)-[1,2,4]oxadiazol-5-yl]-3-phenyl-propyl}-amide]
Second: CCN(CC)CCS(=O)(=O)N[C@H](CCc1ccccc1)c1nc(-c2cccnc2Cl)no1 [Compound 54, 2-Diethylamino-ethanesulfonic acid {(R)-1-[3-(2-chloro-pyridin-3-yl)-[1,2,4]oxadiazol-5-yl]-3-phenyl-propyl}-amide]
The Ki of the first is lower: less than 100 nM for the first, 100 to 500 nM for the second. The first binds more tightly here.

First: CCN(CC)CCCS(=O)(=O)N[C@H](CCc1ccccc1)c1nc(Cc2ccc(OC)c(OC)c2)n[nH]1 [Compound 32, 3-Diethylamino-propane-1-sulfonic acid {(R)-1-[5-(3,4-dimethoxy-benzyl)-2H-[1,2,4]triazol-3-yl]-3-phenyl-propyl}-amide]
Second: CCN(CC)CCCS(=O)(=O)N[C@H](CCc1ccccc1)c1nc(-c2c(OC)cccc2OC)no1 [Compound 37, 3-Diethylamino-propane-1-sulfonic acid {(R)-1-[3-(2,6-dimethoxy-phenyl)-[1,2,4]oxadiazol-5-yl]-3-phenyl-propyl}-amide]
The Ki of the first is lower: less than 100 nM for the first, 500 to 1000 nM for the second.

`CCN(CC)CCCS(=O)(=O)N[C@H](COCc1ccccc1)c1nc(-c2ccccc2C)no1` [Compound 33, 3-Diethylamino-propane-1-sulfonic acid [(R)-2-benzyloxy-1-(3-o-tolyl-[1,2,4]oxadiazol-5-yl)-ethyl]-amide] and `CCN(CC)CCCS(=O)(=O)N[C@H](COCc1ccccc1)c1nc(-c2ncccc2C)no1` [Compound 34, 3-Diethylamino-propane-1-sulfonic acid {(R)-2-benzyloxy-1-[3-(3-methyl-pyridin-2-yl)-[1,2,4]oxadiazol-5-yl]-ethyl}-amide] cannot be ordered by Ki: no less than 1000 nM for the first, 500 to 1000 nM for the second.

First: CCN(CC)C1CCC(S(=O)(=O)N[C@H](CCc2ccccc2)c2nnc(-c3ccc(F)cc3)[nH]2)CC1 (stereo partly drawn) [Compound 35, 4-Diethylamino-cyclohexanesulfonic acid {(R)-1-[5-(4-fluoro-phenyl)-4H-[1,2,4]triazol-3-yl]-3-phenyl-propyl}-amide]
Second: CCN(CC)CCCS(=O)(=O)N[C@H](CCc1ccccc1)c1nc(-c2ccc(C#N)cc2)n[nH]1 [Compound 40, 3-Diethylamino-propane-1-sulfonic acid {(R)-1-[5-(4-cyano-phenyl)-2H-[1,2,4]triazol-3-yl]-3-phenyl-propyl}-amide]
The Ki of the first is higher: 100 to 500 nM for the first, less than 100 nM for the second. The second binds more tightly here.

First: CCN(CC)CCS(=O)(=O)N[C@H](CCc1ccccc1)c1nc(-c2c(C)cccc2C)no1 [Compound 36, 2-Diethylamino-ethanesulfonic acid {(R)-1-[3-(2,6-dimethyl-phenyl)-[1,2,4]oxadiazol-5-yl]-3-phenyl-propyl}-amide]
Second: CCN(CC)CCCS(=O)(=O)N[C@H](CCc1ccccc1)c1nc(-c2c(C)cccc2C)no1 [Compound 52, 3-Diethylamino-propane-1-sulfonic acid {(R)-1-[3-(2,6-dimethyl-phenyl)-[1,2,4]oxadiazol-5-yl]-3-phenyl-propyl}-amide]
The Ki of the first is higher: no less than 1000 nM for the first, 100 to 500 nM for the second.

`CCN(CC)CCCS(=O)(=O)N[C@H](CCc1ccccc1)c1nc(-c2cccnc2)no1` [Compound 41, 3-Diethylamino-propane-1-sulfonic acid [(R)-3-phenyl-1-(3-pyridin-3-yl-[1,2,4]oxadiazol-5-yl)-propyl]-amide] and `CCN(CC)CCS(=O)(=O)N[C@H](CCc1ccccc1)c1nc(-c2cccnc2)no1` [Compound 43, 2-Diethylamino-ethanesulfonic acid [(R)-3-phenyl-1-(3-pyridin-3-yl-[1,2,4]oxadiazol-5-yl)-propyl]-amide] fall in the same range of Ki: 100 to 500 nM for the first, 100 to 500 nM for the second.

First: CCN(CC)CCCS(=O)(=O)N[C@H](CCc1ccccc1)c1nc(-c2ccc(C(C)(C)C)cc2)n[nH]1 [Compound 42, 3-Diethylamino-propane-1-sulfonic acid {(R)-1-[5-(4-tert-butyl-phenyl)-2H-[1,2,4]triazol-3-yl]-3-phenyl-propyl}-amide]
Second: CCN(CC)CCCS(=O)(=O)N[C@H](CCc1ccccc1)c1nc(-c2cccc(Br)c2)n[nH]1 [Compound 53, 3-Diethylamino-propane-1-sulfonic acid {(R)-1-[5-(3-bromo-phenyl)-2H-[1,2,4]triazol-3-yl]-3-phenyl-propyl}-amide]
The Ki of the first is higher: no less than 1000 nM for the first, less than 100 nM for the second.

`CCN(CC)CCCS(=O)(=O)N[C@H](CCc1ccccc1)c1nc(-c2ccc3ncsc3c2)n[nH]1` [Compound 44, 3-Diethylamino-propane-1-sulfonic acid [(R)-1-(5-benzothiazol-6-yl-2H-[1,2,4]triazol-3-yl)-3-phenyl-propyl]-amide] and `CCN(CC)CCCS(=O)(=O)N[C@H](CCc1ccccc1)c1nc(-c2cccc(C#N)c2)n[nH]1` [Compound 50, 3-Diethylamino-propane-1-sulfonic acid {(R)-1-[5-(3-cyano-phenyl)-2H-[1,2,4]triazol-3-yl]-3-phenyl-propyl}-amide] cannot be ordered by Ki: less than 100 nM for the first, less than 100 nM for the second.

`CCN(CC)CCCS(=O)(=O)N[C@H](COCc1ccccc1)c1nc(-c2cccnc2)no1` [Compound 45, 3-Diethylamino-propane-1-sulfonic acid [(R)-2-benzyloxy-1-(3-pyridin-3-yl-[1,2,4]oxadiazol-5-yl)-ethyl]-amide] and `CCN(CC)CCCS(=O)(=O)N[C@H](COCc1ccccc1)c1nc(-c2ccncc2)no1` [Compound 51, 3-Diethylamino-propane-1-sulfonic acid [(R)-2-benzyloxy-1-(3-pyridin-4-yl-[1,2,4]oxadiazol-5-yl)-ethyl]-amide] cannot be ordered by Ki: no less than 1000 nM for the first, no less than 1000 nM for the second.

First: CCN(CC)CCS(=O)(=O)N[C@H](CCc1ccccc1)c1nc(-c2c(OC)cccc2OC)no1 [Compound 46, 2-Diethylamino-ethanesulfonic acid {(R)-1-[3-(2,6-dimethoxy-phenyl)-[1,2,4]oxadiazol-5-yl]-3-phenyl-propyl}-amide]
Second: CCN(CC)CCS(=O)(=O)N[C@H](COCc1ccccc1)c1nc(-c2ccccc2OC)no1 [Compound 49, 2-Diethylamino-ethanesulfonic acid {(R)-2-benzyloxy-1-[3-(2-methoxy-phenyl)-[1,2,4]oxadiazol-5-yl]-ethyl}-amide]
The Ki of the first is lower: 100 to 500 nM for the first, no less than 1000 nM for the second.

Compared with `CCN(CC)CCCS(=O)(=O)N[C@H](CCc1ccccc1)c1nc(-c2ccc3c(c2)OCCO3)n[nH]1` [Compound 47, 3-Diethylamino-propane-1-sulfonic acid {(R)-1-[5-(2,3-dihydro-benzo[1,4]dioxin-6-yl)-2H-[1,2,4]triazol-3-yl]-3-phenyl-propyl}-amide], `CCN(CC)CCCS(=O)(=O)N[C@H](CCc1ccccc1)c1nc(-c2ccccc2Cl)no1` [Compound 48, 3-Diethylamino-propane-1-sulfonic acid {(R)-1-[3-(2-chloro-phenyl)-[1,2,4]oxadiazol-5-yl]-3-phenyl-propyl}-amide] is higher in Ki: less than 100 nM for the first, 100 to 500 nM for the second. The first binds more tightly here.
